# Results as given in patent US20170000133A1, “BENZOXABOROLE FUNGICIDES” (SYNGENTA PARTICIPATIONS AG, priority 2013, published 2017).
# System: Pythium ultimum
# Assay: Pythium ultimum / liquid culture (seedling damping off)
# Type: cell-based
# Conditions: Globisporangium ultimum, read-out: disease control (inhibition of growth determined photometrically)
row,SMILES,inhibition at 200 ppm [%]
1,COP(=O)(CCOC(=O)c1cc2c(cc1Cl)COB2O)OC [Compound 228],≥ 80

# Same assay, conditions: Globisporangium ultimum; 200 ppm; potato dextrose broth, 24° C., 2-3 days after application; read-out: disease control (inhibition of growth determined photometrically)
row,SMILES,inhibition at 200 ppm [%]
1,O=C(NCc1ccccn1)c1ccc2c(c1)B(O)OC2 [Compound 52],≥ 80
2,O=C(NCCC(F)(F)F)c1cc2c(cc1Cl)COB2O [Compound 54],≥ 80
3,O=C(NC1CCSC1=O)c1cc2c(cc1Cl)COB2O (centres unmarked) [Compound 55],≥ 80
4,O=C(NCCc1ccc2c(c1)OCO2)c1cc2c(cc1Cl)COB2O [Compound 58],≥ 80
5,C#CC1(NC(=O)c2cc3c(cc2Cl)COB3O)CCCCC1 [Compound 62],≥ 80
6,O=C(NCC1CCCO1)c1cc2c(cc1Cl)COB2O (centres unmarked) [Compound 64],≥ 80
7,O=C(NCCCCl)c1cc2c(cc1F)COB2O [Compound 70],≥ 80
8,O=C(NCc1ccccc1)c1cc2c(cc1Cl)COB2O [Compound 71],≥ 80
9,O=C(NCCC(F)(F)F)c1cc2c(cc1F)COB2O [Compound 72],≥ 80
10,O=C(NCC1(O)CCCCC1)c1cc2c(cc1F)COB2O [Compound 74],≥ 80
11,CC(NC(=O)c1cc2c(cc1Cl)COB2O)c1ccccc1 (centres unmarked) [Compound 75],≥ 80
12,O=C(NC1CCSC1=O)c1cc2c(cc1F)COB2O (centres unmarked) [Compound 76],≥ 80
13,O=C(NCCc1cccs1)c1cc2c(cc1Cl)COB2O [Compound 81],≥ 80
14,O=C(NCCc1ccc2c(c1)OCO2)c1cc2c(cc1F)COB2O [Compound 82],≥ 80
15,O=C(NCCOc1ccccc1)c1cc2c(cc1Cl)COB2O [Compound 83],≥ 80
16,CS(=O)(=O)c1ccc(CNC(=O)c2cc3c(cc2F)COB3O)cc1 [Compound 86],≥ 80
17,COc1ccc(CNC(=O)c2cc3c(cc2Cl)COB3O)cc1 [Compound 91],≥ 80
18,O=C(NCCC1OCCO1)c1cc2c(cc1F)COB2O [Compound 92],≥ 80
19,O=C(NCc1ccc(-n2cccn2)cc1)c1cc2c(cc1Cl)COB2O [Compound 93],≥ 80
20,CSCCNC(=O)c1cc2c(cc1Cl)COB2O [Compound 101],≥ 80
21,O=C(NCc1ccc(Cl)nc1)c1cc2c(cc1Cl)COB2O [Compound 105],≥ 80
22,O=C(Nc1ccccc1Cl)c1cc2c(cc1Cl)COB2O [Compound 108],≥ 80
23,O=C(NCCc1ccccc1)c1cc2c(cc1F)COB2O [Compound 111],≥ 80

row,SMILES,inhibition at 200 ppm [%]
1,O=C(NCCc1cccs1)c1cc2c(cc1F)COB2O [Compound 115],≥ 80
2,O=C(NCCOc1ccccc1)c1cc2c(cc1F)COB2O [Compound 117],≥ 80
3,COc1ccc(NC(=O)c2cc3c(cc2Cl)COB3O)c(OC)c1 [Compound 118],≥ 80
4,O=C(Nc1cccc(F)c1)c1cc2c(cc1Cl)COB2O [Compound 120],≥ 80
5,O=C(NCc1ccc(-n2cccn2)cc1)c1cc2c(cc1F)COB2O [Compound 126],≥ 80
6,O=C(NCCc1c[nH]c2ccccc12)c1cc2c(cc1F)COB2O [Compound 130],≥ 80
7,CSCCNC(=O)c1cc2c(cc1F)COB2O [Compound 134],≥ 80
8,O=C(Nc1ccccc1-c1cc2ccccc2[nH]1)c1cc2c(cc1Cl)COB2O [Compound 135],≥ 80
9,CSc1nc(NC(=O)c2cc3c(cc2Cl)COB3O)n[nH]1 [Compound 149],≥ 80
10,Cc1cccnc1NC(=O)c1cc2c(cc1Cl)COB2O [Compound 151],≥ 80
11,O=C(Nc1cccc2ncccc12)c1cc2c(cc1F)COB2O [Compound 152],≥ 80
12,Cc1cc(O)nc(NC(=O)c2cc3c(cc2Cl)COB3O)n1 [Compound 153],≥ 80
13,Cc1onc(-c2ccccc2)c1NC(=O)c1cc2c(cc1Cl)COB2O [Compound 156],≥ 80
14,O=C(Nc1ccc(-n2cccc2)cc1)c1cc2c(cc1F)COB2O [Compound 159],≥ 80
15,O=C(Nc1cc(-c2ccccc2)[nH]n1)c1cc2c(cc1Cl)COB2O [Compound 160],≥ 80
16,Cc1nnc(NC(=O)c2cc3c(cc2Cl)COB3O)s1 [Compound 164],≥ 80
17,O=C(Nc1ccc2ncsc2c1)c1cc2c(cc1F)COB2O [Compound 166],≥ 80
18,Cc1cc(=O)oc2cc(NC(=O)c3cc4c(cc3F)COB4O)ccc12 [Compound 172],≥ 80
19,CN(C)S(=O)(=O)c1ccc(NC(=O)c2cc3c(cc2F)COB3O)cc1 [Compound 173],≥ 80
20,Cc1cc(NC(=O)c2cc3c(cc2F)COB3O)n(C)n1 [Compound 175],≥ 80
21,Cc1csc(NC(=O)c2cc3c(cc2F)COB3O)n1 [Compound 176],≥ 80
22,CSc1nc(NC(=O)c2cc3c(cc2F)COB3O)n[nH]1 [Compound 177],≥ 80
23,Cc1cc(O)nc(NC(=O)c2cc3c(cc2F)COB3O)n1 [Compound 178],≥ 80

row,SMILES,inhibition at 200 ppm [%]
1,Cc1onc(-c2ccccc2)c1NC(=O)c1cc2c(cc1F)COB2O [Compound 180],≥ 80
2,O=C(OCC1CCCO1)c1cc2c(cc1Cl)COB2O (centres unmarked) [Compound 212],≥ 80
3,Cn1cc(CCCOC(=O)c2cc3c(cc2Cl)COB3O)cn1 [Compound 219],≥ 80
4,O=C(OCCCC(=O)N1CCCC1)c1cc2c(cc1Cl)COB2O [Compound 220],≥ 80
5,O=C(OC1COC1)c1cc2c(cc1Cl)COB2O [Compound 234],≥ 80
6,O=C(OC1CCOC1)c1cc2c(cc1Cl)COB2O (centres unmarked) [Compound 235],≥ 80
7,COCCOCCOCCOC(=O)c1cc2c(cc1Cl)COB2O [Compound 239],≥ 80
8,O=C(NCCC(F)(F)F)c1ccc2c(c1)B(O)OC2 [Compound 246],≥ 80
9,O=C(NCC1(O)CCCCC1)c1ccc2c(c1)B(O)OC2 [Compound 247],≥ 80
10,CCOC(=O)C1CC=CCC1NC(=O)c1ccc2c(c1)B(O)OC2 (centres unmarked) [Compound 248],≥ 80
11,O=C(NCC(O)c1ccc(O)cc1)c1ccc2c(c1)B(O)OC2 (centres unmarked) [Compound 249],≥ 80
12,C#CC1(NC(=O)c2ccc3c(c2)B(O)OC3)CCCCC1 [Compound 254],≥ 80
13,O=C(NCCC1OCCO1)c1ccc2c(c1)B(O)OC2 [Compound 255],≥ 80
14,O=C(NCC1CCCO1)c1ccc2c(c1)B(O)OC2 (centres unmarked) [Compound 256],≥ 80
15,O=C(NCc1cccnc1)c1ccc2c(c1)B(O)OC2 [Compound 259],≥ 80
16,CC(NC(=O)c1ccc2c(c1)B(O)OC2)c1ccccc1 (centres unmarked) [Compound 263],≥ 80
17,O=C(NCc1ccc2c(c1)OCCO2)c1ccc2c(c1)B(O)OC2 [Compound 269],≥ 80
18,O=C(NCc1ccc(-n2cccn2)cc1)c1ccc2c(c1)B(O)OC2 [Compound 272],≥ 80
19,O=C(NCCc1c[nH]c2ccccc12)c1ccc2c(c1)B(O)OC2 [Compound 274],≥ 80
20,O=C(NCc1ccccc1C(F)(F)F)c1ccc2c(c1)B(O)OC2 [Compound 275],≥ 80
21,O=C(NCc1ccc(Cl)nc1)c1ccc2c(c1)B(O)OC2 [Compound 276],≥ 80
